Experimental data: the supplement of paper PMC10307832

Compound: Cc1nc(NC(=O)N2CCC[C@H]2C(N)=O)sc1-c1ccnc(C(C)(C)C(F)(F)F)c1 [Alpelisib] + COc1cccc2cc(-c3nc([C@H]4CC[C@H](C(=O)O)CC4)n4ncnc(N)c34)[nH]c12 [OSI-027] (partner 0.5 µM)
Assay: relative viability (nuclei count vs DMSO), 5 days (fraction); higher = more cells survive
Settings: first compound 0.04 µM
In short: (§1)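 Lung cancer cell lines, seeded in 1536-well plates, were treated the following day by pin tool with a single drug or with five library-drug doses (not always all listed) in √10 steps on top of a fixed anchor-drug dose. Cells were fixed and nuclei stained in one step after 5 days, and nuclei were counted. Relative viability is the nuclei count for treated wells divided by that for vehicle wells, reported as medians of duplicate plates.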

In order of rising relative viability:
1. NCI-H520  0.21
2. LU99A  0.306
3. NCI-H1944  0.365
4. EMC-BAC-2  0.368
5. SK-LU-1  0.378
6. NCI-H838  0.386
7. HARA  0.396
8. LCLC-97TM1  0.434
9. NCI-H2347  0.484
10. NCI-H2087  0.503
11. A-427  0.509
12. NCI-H1734  0.513
13. NCI-H460  0.545
14. NCI-H1395  0.593
15. EKVX  0.594
16. NCI-H2009  0.602
17. NCI-H2228  0.612
18. NCI-H647  0.614
19. HCC-15  0.623
20. NCI-H1915  0.628
21. NCI-H1792  0.653
22. CAL-12T  0.67
23. NCI-H23  0.672
24. NCI-H2170  0.695
25. COR-L 105  0.715
26. LXF-289  0.725
27. NCI-H727  0.753
28. LC-2-ad  0.783
29. HCC-827  0.808
30. COR-L23  0.81
31. NCI-H2085  0.826
32. HCC-366  0.867
33. NCI-H3122  0.928

Same assay, conditions: first compound 0.1265 µM

In order of falling relative viability:
1. HCC-366  0.877
2. NCI-H1792  0.866
3. HCC-827  0.803
4. NCI-H3122  0.791
5. COR-L23  0.713
6. LC-2-ad  0.692
7. NCI-H2085  0.658
8. LXF-289  0.626
9. NCI-H460  0.623
10. NCI-H2170  0.612
11. NCI-H1915  0.597
12. NCI-H647  0.576
13. NCI-H2009  0.574
14. COR-L 105  0.567
15. HCC-15  0.563
16. NCI-H1395  0.558
17. EKVX  0.531
18. NCI-H2228  0.53
19. NCI-H23  0.485
20. NCI-H2087  0.484
21. CAL-12T  0.449
22. A-427  0.411
23. NCI-H1944  0.401
24. NCI-H2347  0.398
25. NCI-H727  0.397
26. LCLC-97TM1  0.391
27. NCI-H838  0.366
28. EMC-BAC-2  0.329
29. LU99A  0.3
30. SK-LU-1  0.297
31. HARA  0.287
32. NCI-H520  0.239

Same assay, conditions: first compound 0.4 µM

In order of rising relative viability:
1. NCI-H520  0.229
2. LCLC-97TM1  0.243
3. SK-LU-1  0.29
4. LU99A  0.296
5. NCI-H838  0.317
6. NCI-H1944  0.332
7. EMC-BAC-2  0.334
8. NCI-H2347  0.356
9. NCI-H2228  0.385
10. NCI-H1734  0.455
11. A-427  0.456
12. HARA  0.48
13. NCI-H2087  0.482
14. NCI-H23  0.521
15. NCI-H727  0.522
16. NCI-H460  0.534
17. HCC-15  0.589
18. NCI-H1915  0.61
19. NCI-H647  0.626
20. NCI-H3122  0.648
21. NCI-H2009  0.655
22. NCI-H2170  0.663
23. NCI-H1792  0.677
24. LXF-289  0.685
25. HCC-827  0.689
26. NCI-H2085  0.709
27. LC-2-ad  0.712
28. NCI-H1395  0.717
29. HCC-366  0.762
30. EKVX  0.773
31. CAL-12T  0.823
32. COR-L 105  0.846
33. COR-L23  0.938

Same assay, conditions: first compound 1.265 µM

In order of falling relative viability:
1. NCI-H2170  0.589
2. NCI-H1395  0.588
3. NCI-H2085  0.585
4. HCC-827  0.57
5. LXF-289  0.567
6. COR-L23  0.566
7. NCI-H1915  0.558
8. COR-L 105  0.527
9. EKVX  0.496
10. HCC-15  0.484
11. LC-2-ad  0.478
12. HCC-366  0.473
13. NCI-H1792  0.44
14. NCI-H2009  0.428
15. CAL-12T  0.411
16. NCI-H647  0.392
17. NCI-H3122  0.37
18. NCI-H23  0.363
19. NCI-H727  0.359
20. A-427  0.351
21. NCI-H2087  0.342
22. NCI-H2347  0.3
23. EMC-BAC-2  0.285
24. NCI-H1944  0.281
25. NCI-H1734  0.278
26. HARA  0.255
27. NCI-H838  0.244
28. NCI-H460  0.242
29. NCI-H2228  0.239
30. LU99A  0.234
31. SK-LU-1  0.219
32. NCI-H520  0.188
33. LCLC-97TM1  0.181

Same assay, conditions: first compound 4 µM

In order of falling relative viability:
1. NCI-H1395  0.634
2. NCI-H2085  0.574
3. COR-L 105  0.513
4. COR-L23  0.492
5. NCI-H647  0.471
6. NCI-H2009  0.429
7. LXF-289  0.427
8. LC-2-ad  0.416
9. CAL-12T  0.403
10. NCI-H1915  0.401
11. NCI-H727  0.391
12. NCI-H2170  0.39
13. HCC-827  0.384
14. EKVX  0.356
15. HCC-366  0.355
16. HCC-15  0.339
17. NCI-H2087  0.336
18. NCI-H23  0.314
19. A-427  0.308
20. NCI-H1792  0.292
21. NCI-H2347  0.233
22. LU99A  0.224
23. NCI-H1944  0.223
24. EMC-BAC-2  0.218
25. NCI-H838  0.211
26. NCI-H1734  0.201
27. SK-LU-1  0.201
28. NCI-H520  0.189
29. NCI-H3122  0.176
30. HARA  0.164
31. NCI-H2228  0.152
32. NCI-H460  0.137
33. LCLC-97TM1  0.1

Compound: CCCS(=O)(=O)Nc1ccc(F)c(C(=O)c2c[nH]c3ncc(-c4ccc(Cl)cc4)cc23)c1F [Vemurafenib] + CC1(C)CCC(c2ccc(Cl)cc2)=C(CN2CCN(c3ccc(C(=O)NS(=O)(=O)c4ccc(N[C@H](CCN5CCOCC5)CSc5ccccc5)c(S(=O)(=O)C(F)(F)F)c4)cc3)CC2)C1 [Navitoclax] (partner 0.5 µM)
Assay: as above
Settings: first compound 0.03162 µM
In short: as §1

In order of falling relative viability:
1. NCI-H1395  1.37
2. CAL-12T  1.28
3. NCI-H460  1.17
4. EMC-BAC-2  1.15
5. NCI-H2009  1.14
6. HARA  1.09
7. NCI-H838  1.07
8. NCI-H1944  1.06
9. NCI-H2085  1.05
10. NCI-H647  1.05
11. NCI-H3122  1.04
12. NCI-H520  1.04
13. HCC-366  0.997
14. A-427  0.969
15. HCC-827  0.967
16. NCI-H2087  0.936
17. SK-LU-1  0.914
18. EKVX  0.898
19. NCI-H23  0.894
20. LXF-289  0.853
21. COR-L23  0.841
22. NCI-H1734  0.787
23. NCI-H1915  0.757
24. LU99A  0.714
25. NCI-H2228  0.687
26. HCC-15  0.679
27. COR-L 105  0.647
28. NCI-H2347  0.633
29. NCI-H1792  0.565
30. NCI-H2170  0.532
31. NCI-H727  0.518
32. LC-2-ad  0.457
33. LCLC-97TM1  0.411

Same assay, conditions: first compound 0.1 µM

In order of rising relative viability:
1. NCI-H2170  0.251
2. NCI-H727  0.366
3. LCLC-97TM1  0.371
4. LC-2-ad  0.422
5. NCI-H1792  0.61
6. HCC-15  0.71
7. SK-LU-1  0.74
8. LU99A  0.752
9. NCI-H2228  0.752
10. NCI-H1734  0.77
11. NCI-H2347  0.78
12. NCI-H1915  0.795
13. NCI-H1944  0.846
14. LXF-289  0.883
15. A-427  0.887
16. NCI-H23  0.9
17. NCI-H647  0.913
18. NCI-H2087  0.915
19. NCI-H2085  0.972
20. HCC-366  0.983
21. COR-L23  0.988
22. NCI-H3122  0.993
23. NCI-H1395  0.999
24. EMC-BAC-2  1.01
25. NCI-H2009  1.13
26. NCI-H460  1.14
27. NCI-H520  1.16
28. CAL-12T  1.2
29. NCI-H838  1.21

Same assay, conditions: first compound 0.3162 µM

In order of falling relative viability:
1. CAL-12T  1.47
2. NCI-H2085  1.23
3. EMC-BAC-2  1.17
4. HARA  1.13
5. NCI-H520  1.11
6. NCI-H1944  1.05
7. NCI-H2228  1.04
8. EKVX  1.03
9. NCI-H460  1.02
10. NCI-H3122  1.02
11. NCI-H2009  1.01
12. HCC-827  1
13. A-427  0.977
14. LXF-289  0.951
15. NCI-H23  0.888
16. LU99A  0.869
17. COR-L 105  0.815
18. NCI-H1734  0.784
19. COR-L23  0.76
20. SK-LU-1  0.751
21. NCI-H1915  0.745
22. HCC-15  0.736
23. NCI-H2347  0.7
24. NCI-H2170  0.639
25. NCI-H727  0.613
26. LC-2-ad  0.535
27. LCLC-97TM1  0.533
28. NCI-H1792  0.439

Same assay, conditions: first compound 1 µM

In order of falling relative viability:
1. CAL-12T  1.28
2. NCI-H838  1.27
3. NCI-H647  1.23
4. NCI-H1395  1.18
5. NCI-H520  1.15
6. EMC-BAC-2  1.14
7. HARA  1.14
8. NCI-H3122  1.1
9. NCI-H2085  1.09
10. NCI-H460  1.07
11. NCI-H2009  1.05
12. NCI-H1944  1.04
13. HCC-366  1.03
14. LXF-289  1.03
15. HCC-827  1.02
16. NCI-H2087  0.987
17. COR-L23  0.953
18. A-427  0.94
19. EKVX  0.847
20. COR-L 105  0.841
21. NCI-H2228  0.841
22. NCI-H1734  0.823
23. LU99A  0.796
24. NCI-H23  0.796
25. NCI-H1915  0.789
26. NCI-H2347  0.75
27. HCC-15  0.73
28. NCI-H1792  0.593
29. SK-LU-1  0.564
30. LCLC-97TM1  0.486
31. NCI-H2170  0.484
32. LC-2-ad  0.46
33. NCI-H727  0.438

Compound: COc1cccc2cc(-c3nc([C@H]4CC[C@H](C(=O)O)CC4)n4ncnc(N)c34)[nH]c12 [OSI-027] + CC(=O)c1c(C)c2cnc(Nc3ccc(N4CCNCC4)cn3)nc2n(C2CCCC2)c1=O [Palbociclib] (partner 0.5 µM)
Assay: as above
Settings: first compound 0.01 µM
In short: as §1

In order of rising relative viability:
1. NCI-H460  0.18
2. NCI-H838  0.203
3. NCI-H2009  0.211
4. NCI-H2087  0.261
5. COR-L23  0.304
6. EKVX  0.332
7. NCI-H1944  0.336
8. SK-LU-1  0.373
9. LU99A  0.382
10. NCI-H1734  0.396
11. NCI-H2170  0.407
12. NCI-H2085  0.463
13. HCC-366  0.465
14. EMC-BAC-2  0.488
15. NCI-H1915  0.535
16. A-427  0.538
17. LC-2-ad  0.548
18. NCI-H1792  0.578
19. NCI-H1395  0.654
20. NCI-H727  0.655
21. HCC-15  0.689
